Results taken from US20100093650A1, “Pharmaceutical Anit-Infective Composition for Inhalation” (LABORATORIES SMB S.A., priority 2006, published 2010).

Key:
[1] = In vitro lung deposition, Multistage Liquid Impinger (MLI); assay type: physicochemical; conditions: for lung concentration per capsule: estimated from lung deposition with about 100 ml epithelial liquid in the lung, composition of example 6
Source text: The amount of macrolide agent inhaled shall be high enough to affect, in some way, the biofilm. It has to be noted that as the effect of macrolide derivatives on the biofilm is mediated through a non-antibacterial mechanism. […] Nevertheless, it is a another object of the present invention to provide a composition containing high concentrations (or amounts) of each of the aminoglycoside derivative and of the macrolide derivative i.e. at least more than 10%, preferably more than 15%, and more preferably more than 20% of the dry powder composition. It is indeed particularly interesting to achieve high lung doses of those therapeutic agents with the minimum amounts of inhalations because it makes the administration easier and more importantly increase the patient's compliance. It also decreases the nominal dose of each active ingredient and thus the adverse effects linked to these actives. In the present invention, the dry powder inhaler also provides a high Fine Particle Dose (FPD) and Fine Particle […] (FPF) when tested in vitro on a Multistage Liquid Impinger (MLI, Eur. Pharm, 5th Edition, chapter 2.9.18). The FPD and FPF are the parameters that predict in vivo lung deposition.
The in vitro lung deposition test was performed using equipment and conditions as described in the European Pharmacopoeia (5th edition, chapter 2.9.18—apparatus C). This equipment consists of a Multistage Liquid Impinger (MLI) and was operated with an air flow of 100 L/min during a period of time of 2.4 seconds to simulate inhalation capabilities of patients. The quantification of the deposition of each drug on each stage of the MLI was performed by HPLC equipped with a a Corona detector.

[2] = test system: 12 day biofilm of Pseudomonas aeruginosa; assay: Bacterial count (CFU/ml) of 12-day biofilm after 24 hours with the products; assay type: cell-based; conditions: for bacterial count in biofilm (CFU/ml × 10^7): 24 hours; for decrease of the number of CFU/ml of the 12-day biofilm versus the positive control: concentrations of Table 1 (tobramycin 4 μg/ml; clarithromycin 100, 200, 500 μg/ml; combinations)
Source text: (§1) Biofilms of Pseudomonas aeruginosa—strain PY O1 were formed according to the methods described by Ceri et al, the calgary biofilm device: new technology for rapid determination of antibiotic susceptibilities of bacterial biofilms, Journal of clinical microbiology, pp. 1771-1776, 1999 and Abdi-Ali et al, bactericidal activity of various antibiotics against biofilm-producing Pseudomonas aeruginosa, International Journal of Antimicrobial Agents 27, 196-200, 2006.
(§2) PY O1: is a cystic Fibrosis clinical mucoid strain of Pseudomonas aeruginosa received from the Erasme Hospital, Brussels.
After having shown that the number of Pseudomonas aeruginosa within the biofilms was stable after 12 days, the products listed in Table 1 were added to the media for the duration of 24 hours. Thereafter the biofilm was rinsed three times with a 0.01 M phosphate buffer adjusted at pH 7.5 in order to remove all cells not bound to the biofilm. The microplate was then placed on ultrasonic bath at 35° C. for 5 minutes to allow the bacteria present in the biofilm to separate from such biofilm. A bacterial count was then performed (number of coloning forming unit CFU/ml). Each experience was done twice and the CFU counting was also repeated twice/experience.

[3] = Particle size by laser diffraction; assay type: physicochemical; conditions: micronized, measured by laser diffraction
Source text: A dry powder composition for inhalation of tobramycin and clarithromycin was formulated using micronized tobramycin supplied by Teva Plantex (Israel). Clarithromycin was supplied by Teva Plantex (Israel) in a non-micronized form. Clarithromycin was then micronized using the micronizer MC-one® (JetpHarma, Switerland). […] The micronisation parameters were a pressure of 10 bars in the Venturi, a pressure of 8 bars in the ring and a feeding rate of 5 g/minute. The mean particle size of the micronized clarithromycin obtained (measured by laser diffraction) was 1.6 μm.

[4] = test system: planktonic Pseudomonas aeruginosa; assay: MIC on planktonic bacteria (NCCLS dilution method); assay type: cell-based
Protocol: as §2
The determination of the minimal inhibitory concentration (MIC) is performed according to the standard of NCCLS (NCCLS, Methods for dilution Antimicrobial Susceptibility Tests for bacteria that grow aerobically; approved standards, sixth edition, M7-A6, vol. 23 no.2, January 2003.

[5] = test system: 12 day old Pseudomonas aeruginosa biofilm; assay: MIC on 12 day old biofilm; assay type: cell-based
Source text: as §1, §2
In a second experiment using the same modus operandi as above, we measured the MIC of Tobramycin on a 12 day old Pseudomonas aeruginosa biofilm. This situation is much closer to the situation observed in vivo in chronic respiratory diseases like Cystic Fibrosis.

[6] = MLI1, example 6 capsule 10 mg/10 mg, MLI 100 L/min
[7] = MLI2, example 6 capsule 10 mg/10 mg, MLI 100 L/min
[8] = MLI3, example 6 capsule 10 mg/10 mg, MLI 100 L/min
[9] = Mean (n = 3), example 6 capsule 10 mg/10 mg, MLI 100 L/min
[10] = composition of example 6, MLI 100 L/min

CC[C@H]1OC(=O)[C@H](C)[C@@H](O[C@H]2C[C@@](C)(OC)[C@@H](O)[C@H](C)O2)[C@H](C)[C@@H](O[C@@H]2O[C@H](C)C[C@H](N(C)C)[C@H]2O)[C@](C)(OC)C[C@@H](C)C(=O)[C@H](C)[C@@H](O)[C@]1(C)O [Clarithromycin]
Device deposition [1, 6]: 1.155 mg | FPD [1, 6]: 3.14 mg | FPF [1, 6]: 31.4% | Filter deposition [1, 6]: 0.478 mg | Stage 1 deposition [1, 6]: 1.338 mg | Stage 2 deposition [1, 6]: 0.664 mg | Stage 3 deposition [1, 6]: 1.715 mg | Stage 4 deposition [1, 6]: 1.162 mg | Throat deposition [1, 6]: 1.025 mg | Device deposition [1, 7]: 1.048 mg | FPD [1, 7]: 3.76 mg | FPF [1, 7]: 37.6% | Filter deposition [1, 7]: 0.598 mg | Stage 1 deposition [1, 7]: 1.566 mg | Stage 2 deposition [1, 7]: 0.845 mg | Stage 3 deposition [1, 7]: 1.891 mg | Stage 4 deposition [1, 7]: 1.482 mg | Throat deposition [1, 7]: 1.134 mg | Device deposition [1, 8]: 1.433 mg | FPD [1, 8]: 3.98 mg | FPF [1, 8]: 39.9% | Filter deposition [1, 8]: 0.574 mg | Stage 1 deposition [1, 8]: 1.352 mg | Stage 2 deposition [1, 8]: 0.680 mg | Stage 3 deposition [1, 8]: 2.078 mg | Stage 4 deposition [1, 8]: 1.533 mg | Throat deposition [1, 8]: 1.223 mg | Device deposition [1, 9]: 1.212 mg | FPD [1, 9]: 3.63 mg | FPF [1, 9]: 36.3% | Filter deposition [1, 9]: 0.550 mg | Stage 1 deposition [1, 9]: 1.419 mg | Stage 2 deposition [1, 9]: 0.729 mg | Stage 3 deposition [1, 9]: 1.895 mg | Stage 4 deposition [1, 9]: 1.392 mg | Throat deposition [1, 9]: 1.127 mg | FPD/capsule [1, 10]: 3.63 mg | FPF [1, 10]: 36.3% | lung concentration per capsule [1]: 36.3 µg/mL | bacterial count in biofilm (CFU/ml × 10^7) ([2]; C 100 μg/ml, 12 day biofilm): 14 CFU × 10^7 | bacterial count in biofilm (CFU/ml × 10^7) ([2]; C 200 μg/ml, 12 day biofilm): 10 CFU × 10^7 | bacterial count in biofilm (CFU/ml × 10^7) ([2]; C 500 μg/ml, 12 day biofilm): 7 CFU × 10^7 | decrease of the number of CFU/ml of the 12-day biofilm versus the positive control [2]: neither tobramycin 4 μg/ml nor clarithromycin at 100, 200 and 500 μg/ml alone are able to decrease the number of CFU/m1 | mean particle size [3]: 1.6 μm | sensitivity of the bacterium (MIC could not be determined) [4]: not sensitive

NC[C@H]1O[C@H](O[C@H]2[C@H](O)[C@@H](O[C@H]3O[C@H](CO)[C@@H](O)[C@H](N)[C@H]3O)[C@H](N)C[C@@H]2N)[C@H](N)C[C@@H]1O [Tobramycin]
Device deposition [1, 6]: 1.035 mg | FPD [1, 6]: 3.60 mg | FPF [1, 6]: 36% | Filter deposition [1, 6]: 0.664 mg | Stage 1 deposition [1, 6]: 1.760 mg | Stage 2 deposition [1, 6]: 0.614 mg | Stage 3 deposition [1, 6]: 1.512 mg | Stage 4 deposition [1, 6]: 1.598 mg | Throat deposition [1, 6]: 0.929 mg | Device deposition [1, 7]: 0.938 mg | FPD [1, 7]: 4.45 mg | FPF [1, 7]: 44.5% | Filter deposition [1, 7]: 0.838 mg | Stage 1 deposition [1, 7]: 1.837 mg | Stage 2 deposition [1, 7]: 0.726 mg | Stage 3 deposition [1, 7]: 1.818 mg | Stage 4 deposition [1, 7]: 1.965 mg | Throat deposition [1, 7]: 0.859 mg | Device deposition [1, 8]: 1.272 mg | FPD [1, 8]: 4.72 mg | FPF [1, 8]: 47.2% | Filter deposition [1, 8]: 0.778 mg | Stage 1 deposition [1, 8]: 1.546 mg | Stage 2 deposition [1, 8]: 0.606 mg | Stage 3 deposition [1, 8]: 1.895 mg | Stage 4 deposition [1, 8]: 2.202 mg | Throat deposition [1, 8]: 0.771 mg | Device deposition [1, 9]: 1.082 mg | FPD [1, 9]: 4.26 mg | FPF [1, 9]: 42.5% | Filter deposition [1, 9]: 0.760 mg | Stage 1 deposition [1, 9]: 1.714 mg | Stage 2 deposition [1, 9]: 0.648 mg | Stage 3 deposition [1, 9]: 1.742 mg | Stage 4 deposition [1, 9]: 1.922 mg | Throat deposition [1, 9]: 0.853 mg | FPD/capsule [1, 10]: 4.26 mg | FPF [1, 10]: 42.5% | lung concentration per capsule [1]: 42.6 µg/mL | bacterial count in biofilm (CFU/ml × 10^7) ([2]; T 4 μg/ml, 12 day biofilm): 25 CFU × 10^7 | decrease of the number of CFU/ml of the 12-day biofilm versus the positive control [2]: neither tobramycin 4 μg/ml nor clarithromycin at 100, 200 and 500 μg/ml alone are able to decrease the number of CFU/m1 | number of CFU/ml ([2]; tobramycin alone at 4 μg/ml, 12 day biofilm): around 2.5×10^8 CFU/ml | activity (MIC) on 12 day old biofilm [5]: no longer active
